Consider 14 compounds from ChEMBL document CHEMBL1201862, “PubChem BioAssay data set” (2004).

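Protocol summary: plate cells (96-well), add compound at 5 concentrations, incubate 48 h, interpolate endpoints linearly. GI50 = concentration required for 50% inhibition of growth.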 Activity calls are given as the source filed them. Cut-off read from the data, not from the text of the source: active = GI50 up to about 1.1 µM and inactive = higher.

Common to all, as to experiment: NCI tumour cell line growth inhibition, 48 h
In assay [1] the test system is K562.
Assay [2] has as its system SF-295.
For assay [3], the system named is SK-MEL-2.
Assay [4] relates to KM12.
Assay [5] has as its system OVCAR-8.
Assay [6] deals with COLO 205.
Assay [7] concerns A549.
Assay [8] deals with SF-268.
Assay [9] relates to SF-539.
Assay [10] relates to SK-OV-3.
Assay [11] deals with EKVX.
The test system of assay [12] is TK-10.
The test system of assay [13] is HOP-92.
Assay [14] relates to NCI-H522.
The test system of assay [15] is 786-0.
The test system of assay [16] is SK-MEL-28.

As for `COC(=O)CCC1=NOC(CC2CC(CCC(=O)OC)=NO2)C1` (stereo unspecified), the GI50 in assay [1], in assay [2], in assay [3], in assay [4], in assay [5] and in assay [6] was > 100 µM (inactive) throughout. Also, the GI50 in assay [7], in assay [8], in assay [9], in [10], in [11] and in assay [12] was > 100 µM (inactive) in each case. Further, the GI50 in assay [13], in [14] and in assay [15] was > 100 µM (inactive) throughout.
Turning to `O=C(Cc1ccccc1)NN1C(=O)C(Cl)C1c1ccccc1O` (stereo unspecified), the GI50 was 14.4 µM (inactive) in assay [1]; 15.4 µM (inactive) in assay [2]; 17.8 µM (inactive) in [3]; 22.4 µM (inactive) in assay [5]; 16.4 µM (inactive) in assay [6]; 21.4 µM (inactive) in assay [7]. For the same compound, the GI50 in [8] is 13.5 µM (inactive); in assay [10] it was 20.3 µM (inactive); in assay [11], 4.07 µM (inactive); in [12], 45.3 µM (inactive); in assay [16], 23.5 µM (inactive); in [14], 3.27 µM (inactive). Further, the GI50 in [15] is 16.8 µM (inactive).
`Cn1cc(C(=O)C[n+]2ccccc2)c2ccccc21`: the GI50 in assay [1] is 33.6 µM (inactive); in assay [2], 38.4 µM (inactive); in assay [3], > 100 µM (inactive); in [4], 50.2 µM (inactive); in assay [5], 58.6 µM (inactive); in assay [6] it was 52.2 µM (inactive). Also, the GI50 in assay [7] was 50.6 µM (inactive); in assay [9], 78.3 µM (inactive); in [11] it was 11.9 µM (inactive); in assay [12] it was > 100 µM (inactive); in assay [14] it was 56 µM (inactive); in [15] it was > 100 µM (inactive).
Regarding `CN/C(=N/C#N)NCc1ccccc1`, the GI50 in assay [2], in assay [3], in assay [4], in assay [5], in [6] and in assay [7] was > 100 µM (inactive) in each case. In addition, the GI50 is > 100 µM (inactive) in [8]; > 100 µM (inactive) in assay [9]; > 100 µM (inactive) in [10]; 0.0512 µM (active) in assay [11]; > 100 µM (inactive) in assay [12]; > 100 µM (inactive) in assay [16]. Moreover, the GI50 in assay [13], in assay [14] and in [15] was > 100 µM (inactive) each time.
On to `O=C(Cc1nc(-c2ccccc2)cc(=O)n1-c1ccccc1Cl)c1ccncc1`, for which the GI50 in [1], in [2], in assay [3], in assay [4], in assay [5] and in assay [6] was > 100 µM (inactive) each time. In addition, the GI50 in assay [7], in assay [8], in [9], in assay [10], in assay [11] and in assay [12] was > 100 µM (inactive) throughout. In addition, the GI50 in [16], in [13], in assay [14] and in assay [15] was > 100 µM (inactive) in each case.
For `N#C[C@]12CC3(CC[C@H]1CC1(C2)OCCO1)OCCO3`, the GI50 in assay [1], in [3], in [4], in assay [5], in assay [6] and in [7] was > 100 µM (inactive) in each case. For the same compound, the GI50 in assay [8], in assay [9], in [10], in assay [12], in assay [16] and in assay [14] was > 100 µM (inactive) throughout. The GI50 in assay [15] is > 100 µM (inactive).
In the case of `COc1ccc2nc3cc(Cl)ccc3c(SCC(=O)Nc3ccccc3-c3ccccc3NC(=O)CSc3c4ccc(Cl)cc4nc4ccc(OC)cc34)c2c1`, the GI50 in assay [1], in assay [2], in assay [3], in assay [4], in [5] and in assay [6] was > 100 µM (inactive) throughout. The GI50 in assay [7], in assay [8], in assay [9], in [10], in [11] and in assay [12] was > 100 µM (inactive) in each case. Moreover, the GI50 in assay [16], in [13], in assay [14] and in assay [15] was > 100 µM (inactive) throughout.
On to `Cc1ccc(S(=O)(=O)Nc2cccc(C)c2C)cc1`, for which the GI50 in assay [1] is 36.6 µM (inactive); in [2], 33.7 µM (inactive); in assay [4], 52.7 µM (inactive); in assay [5], 72.4 µM (inactive); in [6] it was 59.7 µM (inactive); in assay [7], 59.6 µM (inactive). The GI50 in [8] was 86.7 µM (inactive); in assay [9], > 100 µM (inactive); in [10], 56.9 µM (inactive); in assay [11], 73.5 µM (inactive); in [12] it was 65.3 µM (inactive); in assay [16], 30.4 µM (inactive). Moreover, the GI50 is 29.5 µM (inactive) in [13] and > 100 µM (inactive) in assay [15].
As for `[O-][Cl+3]([O-])([O-])O.c1ccc(/N=c2\snc(-c3ccccc3)s2)cc1`, the GI50 in [1], in assay [3], in [4], in assay [5], in assay [6] and in [7] was > 100 µM (inactive) in each case. The GI50 in [8], in assay [9], in assay [10], in assay [12], in [16] and in assay [14] was > 100 µM (inactive) throughout. The GI50 in assay [15] is > 100 µM (inactive).
In the case of `CC1=C(C(=O)Nc2ccccc2C)C(c2ccccc2C)C(C(=O)Nc2ccccc2C)=C(C)N1`, the GI50 in [1] is 19.8 µM (inactive); in [2], 20.1 µM (inactive); in assay [3], 18.7 µM (inactive); in assay [4], 18.4 µM (inactive); in assay [5], 19.1 µM (inactive); in [6], 24.3 µM (inactive). Also, the GI50 in [7] is 30.6 µM (inactive); in assay [8] it was 20.4 µM (inactive); in assay [9], > 10 µM (inactive); in assay [11] it was 20.7 µM (inactive); in assay [12], 28.8 µM (inactive); in assay [16], 19.9 µM (inactive). In addition, the GI50 in assay [13] was 10.1 µM (inactive); in [14], 14.8 µM (inactive); in assay [15], 17.6 µM (inactive).
For the compound `N#CN1CC[C@@H]2CC3(CCC2C1)OCCO3` (stereo partly specified), the GI50 in assay [1], in assay [2], in [3], in assay [4], in assay [5] and in assay [6] was > 100 µM (inactive) throughout. Also, the GI50 in [7], in assay [8], in [9], in [10], in assay [11] and in assay [12] was > 100 µM (inactive) each time. The results for the GI50 in assay [13], in assay [14] and in assay [15] were > 100 µM (inactive), < 0.01 µM (active) and > 100 µM (inactive), respectively.
`CCOC(=O)c1[nH]c(CN(C)Cc2[nH]c(C(=O)OCC)c(C)c2C(=O)OCc2ccccc2)c(C(=O)OCc2ccccc2)c1C`: the GI50 in [1] is 6.17 µM (inactive); in [2] it was 19.3 µM (inactive); in assay [4] it was 7.45 µM (inactive); in assay [5] it was 24 µM (inactive); in assay [6], 9.08 µM (inactive); in assay [7], 16.6 µM (inactive). Besides, the GI50 was 10.7 µM (inactive) in assay [8]; 8.47 µM (inactive) in [9]; 12.9 µM (inactive) in [11]; 16.7 µM (inactive) in assay [12]; 16.9 µM (inactive) in assay [16]; 2.42 µM (inactive) in assay [13]. Further, the results for the GI50 in assay [14] and in assay [15] were 6.87 µM (inactive) and 11.2 µM (inactive), respectively.
For the compound `CNC1=Nc2ccc(Cl)cc2C(c2ccccc2)=NN1C`, the GI50 in assay [1] is 51.2 µM (inactive); in assay [2], 84.7 µM (inactive); in assay [3], 73.5 µM (inactive); in assay [4] it was > 100 µM (inactive); in assay [5], > 100 µM (inactive); in assay [6], > 100 µM (inactive). Also, the GI50 is > 100 µM (inactive) in assay [7]; 57.9 µM (inactive) in assay [8]; > 100 µM (inactive) in [9]; > 100 µM (inactive) in assay [11]; 84.3 µM (inactive) in [12]; > 100 µM (inactive) in assay [16]. In addition, the values for the GI50 in assay [13], in [14] and in [15] were 27.6 µM (inactive), > 100 µM (inactive) and 54.7 µM (inactive), respectively.
As for `C[N+]12c3ccccc3O[B-]1(c1ccccc1)Oc1ccccc12` (stereo unspecified), the GI50 in [1] was 28.6 µM (inactive); in assay [2], 41 µM (inactive); in assay [4] it was 25.2 µM (inactive); in assay [5], 28.6 µM (inactive); in assay [6], 63.8 µM (inactive); in assay [7], 39.4 µM (inactive). The GI50 was 20.3 µM (inactive) in assay [8]; 26.9 µM (inactive) in assay [9]; 33.7 µM (inactive) in [10]; 84.5 µM (inactive) in assay [11]; 23.5 µM (inactive) in [12]; 35.1 µM (inactive) in assay [16]. Also, the GI50 was > 100 µM (inactive) in [13], 15.3 µM (inactive) in assay [14] and 35.9 µM (inactive) in assay [15].
